Reference: patent publication US10961215B2, “N-aryl and N-heteroaryl piperidine derivatives as liver X receptor beta agonists, compositions, and their use” (Merck Sharp & Dohme Corp., priority 2016, dated 2021)

Columns and labels:
[1] = target: T1, GST tagged LXRalpha LBD (ligand binding domain) (Homo sapiens, UniProt Q13133); assay: LanthaScreen TR-FRET Liver X Receptor Coactivator Assay, LXR alpha-LBD (co-activator recruitment; IP and % Emax relative to T0901317); type: biochemical; settings: for LXR alpha IP (nM) / EC50: Inflection Point of co-activator recruitment, LXR alpha-LBD, TR-FRET; for Emax: efficacy at max dose in relation to reference T0901317, LXR alpha-LBD, read-out: LXR alpha actiivty at max dose (%)
T1 construct: purchased Invitrogen pv4655
T1 sequence (Q13133 209-447 limits assumed): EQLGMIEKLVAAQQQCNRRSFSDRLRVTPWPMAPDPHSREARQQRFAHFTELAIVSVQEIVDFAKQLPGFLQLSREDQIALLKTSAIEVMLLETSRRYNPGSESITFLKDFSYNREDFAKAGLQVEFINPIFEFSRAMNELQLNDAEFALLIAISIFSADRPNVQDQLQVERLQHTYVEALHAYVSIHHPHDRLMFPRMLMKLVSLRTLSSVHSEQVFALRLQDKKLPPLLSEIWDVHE
Summary of the method: (§1)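 Compounds were first combined with the GST-LBD protein. A premixed fluorescein coactivator peptide and terbium-labelled anti-GST antibody was then added. Plates were incubated at room temperature and TR-FRET measured.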

[2] = target: T2, GST tagged LXRbeta LBD (ligand binding domain) (Homo sapiens, UniProt P55055); assay: LanthaScreen TR-FRET Liver X Receptor Coactivator Assay, LXR beta-LBD (co-activator recruitment; IP and % Emax relative to T0901317); type: biochemical; settings: for EC50: Inflection Point of co-activator recruitment, LXR beta-LBD, TR-FRET; for Emax: efficacy at max dose in relation to reference T0901317, LXR beta-LBD, read-out: LXR beta actiivty at max dose (%)
T2 construct: purchased Invitrogen pv4658.pps
T2 sequence (P55055 222-460 limits assumed): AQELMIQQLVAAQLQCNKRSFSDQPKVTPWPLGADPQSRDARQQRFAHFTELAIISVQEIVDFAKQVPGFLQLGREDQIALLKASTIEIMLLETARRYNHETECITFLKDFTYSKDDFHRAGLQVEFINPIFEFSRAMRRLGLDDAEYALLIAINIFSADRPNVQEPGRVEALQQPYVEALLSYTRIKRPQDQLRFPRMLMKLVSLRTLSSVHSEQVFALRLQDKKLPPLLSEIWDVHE
Summary of the method: as §1

SMILES | LXR alpha IP (nM) [1] | Emax [1] [%] | EC50 [2] [µM] | Emax [2] [%] | EC50 [1] [µM]
COc1cccc([C@@](O)(C(=O)NC[C@@H](C)CC2CCN(c3ccc(C(=O)N(C)C)c(Cl)n3)CC2)C(F)(F)F)c1 [Example 3-4, 2-chloro-N,N-dimethyl-6-(4-((S)-2-methyl-3-((R)-3,3,3-trifluoro-2-hydroxy-2-(3-methoxyphenyl)propanamido)propyl)piperidin 1-yl)nicotinamide] | No IP | 19 | 0.134 | 87 | 
CNC(=O)c1ccc(N2CCC3(CC2)CC3CCN(C)C(=O)[C@](O)(c2cccc(OC)c2)C(F)(F)F)nc1Cl (stereo in doubt) [Example 7-20, 2-chloro-N-methyl-6-((R)-1-(2-((R)-3,3,3-trifluoro-2-hydroxy-2-(3-methoxyphenyl)-N-methylpropanamido)ethyl)-6-azaspiro[2.5]octan-6-yl)nicotinamide] |  | 40 | 0.036 | 60 | 1.18
CN(C)C(=O)c1ccc(N2CCC3(CC2)CC3CCN(C)C(=O)[C@](O)(c2ccccc2)C(F)(F)F)cc1Cl (stereo partly drawn) [Example 7-2, 2-chloro-N,N-dimethyl-4-(1-(2-((R)-3,3,3-trifluoro-2-hydroxy-N-methyl-2-phenylpropanamido)ethyl)-6-azaspiro[2.5]octan-6-yl)benzamide] |  | 44 | 0.014 | 73 | 0.534
CN(C)C(=O)c1ccc(N2CCC(CCCN(C)C(=O)[C@@](O)(c3cccc(C4CC4)c3)C(F)(F)F)CC2)nc1Cl [Example 1-34, (S)-2-chloro-6-(4-(3-(2-(3-cyclopropylphenyl)-3,3,3-trifluoro-2-hdyroxy-N-methylpropanamido)propyl)piperidin-1-yl)-N,N-dimethylnicotinamide] | No IP | 16 | 0.261 | 49 | 
COc1cccc([C@](O)(C(=O)N(C)CCCC2CCN(c3ccc(C(=O)N(C)C)c(Cl)n3)CC2)C(F)F)c1 [Example 1-13, (S)-2-chloro-6-(4-(3-(3,3-difluoro-2-hydroxy-2-(3-methoxyphenyl)-N-methylpropanamido)propyl)piperidin-1-yl)-N,N-dimethylnicotinamide] | No IP | 0 | 0.148 | 63 | 
